Data from patent US11787825B2 (priority 2021, dated 2023).
In brackets after ≈: the same amount, converted by molar mass. Read-outs that look alike come from different tables or passages of the source.

Tests used:
[1] = physchem; conditions: 25 °C, thermodynamic from solid
[2] = 0.1N HCL, 1.0% DMSO, 24-hour incubation at ambient temperature, maximum theoretical compound concentration 100 μM
[3] = 1×PBS buffer (pH 7.4), 1.0% DMSO, 24-hour incubation at ambient temperature, maximum theoretical compound concentration 100 μM
[4] = fed state simulated intestinal fluid (FeSSIF), fessif
[5] = fasted state simulated intestinal fluid (FaSSIF), fassif

| pH 2 solubility [2] | pH 7 solubility [3] | solubility [1, 4] | solubility [1, 5] | Structure (SMILES) | solubility ([1]; fassif) | solubility ([1]; fessif) | pH 2 solubility (pH 2) | pH 7 solubility (pH 7.4) |
| --- | --- | --- | --- | --- | --- | --- | --- | --- |
|  |  |  |  | CC(C)(C#Cc1ccc(-c2ccc(Cl)c3c(N(C(=O)Cc4ccccc4OP(=O)(O)O)S(C)(=O)=O)nn(CC(F)(F)F)c23)c([C@H](Cc2cc(F)cc(F)c2)NC(=O)Cn2nc(C(F)(F)F)c3c2C(F)(F)[C@@H]2C[C@H]32)n1)S(C)(=O)=O [Compound 45, 2-(2-(N-(4-chloro-7-(2-((S)-1-(2-((3bS,4aR)-5,5-difluoro-3-(trifluoromethyl)-3b,4,4a,5-tetrahydro-1H-cyclopropa[3,4]cyclopenta[1,2-c]pyrazol-1-yl)acetamido)-2-(3,5-difluorophenyl)ethyl)-6-(3-methyl-3-(methylsulfonyl)but-1-yn-1-yl)pyridin-3-yl)-1-(2,2,2-trifluoroethyl)-1H-indazol-3-yl)methylsulfonamido)-2-oxoethyl)phenyl dihydrogen phosphate] | 456 µg/mL | 129 µg/mL | 1/1 μM | 1/1 μM |
| 100 μM | 27 μM | 0.2 µg/mL (≈ 0.178 µM) |  | CC(C)(C#Cc1ccc(-c2ccc(Cl)c3c(N(C(=O)[C@@H](N)CCCNC(=N)N)S(C)(=O)=O)nn(CC(F)(F)F)c23)c([C@H](Cc2cc(F)cc(F)c2)NC(=O)Cn2nc(C(F)(F)F)c3c2C(F)(F)[C@@H]2C[C@H]32)n1)S(C)(=O)=O [Compound 22, 2-amino-N-(4-chloro-7-(2-((S)-1-(2-((3bS,4aR)-5,5-difluoro-3-(trifluoromethyl)-3b,4,4a,5-tetrahydro-1H-cyclopropa[3,4]cyclopenta[1,2-c]pyrazolyl)acetamido)-2-(3,5-difluorophenyl)ethyl)-6-(3-methyl-3-(methylsulfonyl)but-1-ynyl)pyridin-3-yl)-1-(2,2,2-trifluoroethyl)-1H-indazol-3-yl)-5-guanidino-N-(methylsulfonyl)pentanamide] |  |  |  |  |
| 1 μM | 87 μM | 3870 µg/mL (≈ 3000 µM) | 1190 µg/mL (≈ 921 µM) | CC(C)(C#Cc1ccc(-c2ccc(Cl)c3c(N(C(=O)CC4(CN(CC(=O)O)C(=O)OCOP(=O)(O)O)CC4)S(C)(=O)=O)nn(CC(F)(F)F)c23)c([C@H](Cc2cc(F)cc(F)c2)NC(=O)Cn2nc(C(F)(F)F)c3c2C(F)(F)[C@@H]2C[C@H]32)n1)S(C)(=O)=O [Compound 39] |  |  |  |  |
|  |  |  |  | Cc1cc(CC(=O)NCP(=O)(O)O)c(C(C)(C)CC(=O)N(c2nn(CC(F)(F)F)c3c(-c4ccc(C#CC(C)(C)S(C)(=O)=O)nc4[C@H](Cc4cc(F)cc(F)c4)NC(=O)Cn4nc(C(F)(F)F)c5c4C(F)(F)[C@@H]4C[C@H]54)ccc(Cl)c23)S(C)(=O)=O)c(OP(=O)(O)O)c1 [Compound 61, ((2-(2-(4-(N-(4-chloro-7-(2-((S)-1-(2-((3bS,4aR)-5,5-difluoro-3-(trifluoromethyl)-3b,4,4a,5-tetrahydro-1H-cyclopropa[3,4]cyclopenta[1,2-c]pyrazol-1-yl)acetamido)-2-(3,5-difluorophenyl)ethyl)-6-(3-methyl-3-(methylsulfonyl)but-1-yn-1-yl)pyridin-3-yl)-1-(2,2,2-trifluoroethyl)-1H-indazol-3-yl)methylsulfonamido)-2-methyl-4-oxobutan-2-yl)-5-methyl-3-(phosphonooxy)phenyl)acetamido)methyl)phosphonic acid] | > 10000 µg/mL |  | 2/70 μM | 2/70 μM |
|  |  |  |  | Cc1cc(P(=O)(O)O)cc(OP(=O)(O)O)c1C(C)(C)CC(=O)N(c1nn(CC(F)(F)F)c2c(-c3ccc(C#CC(C)(C)S(C)(=O)=O)nc3[C@H](Cc3cc(F)cc(F)c3)NC(=O)Cn3nc(C(F)(F)F)c4c3C(F)(F)[C@@H]3C[C@H]43)ccc(Cl)c12)S(C)(=O)=O [Compound 57, (4-(4-(N-(4-Chloro-7-(2-((S)-1-(2-((3bS,4aR)-5,5-difluoro-3-(trifluoromethyl)-3b,4,4a,5-tetrahydro-111-cyclopropa[3,4]cyclopenta[1,2-c]pyrazol-1-yl)acetamido)-2-(3,5-difluorophenyl)ethyl)-6-(3-methyl-3-(methylsulfonyl)but-1-yn-1-yl)pyridin-3-yl)-1-(2,2,2-trifluoroethyl)-1H-indazol-3-yl)methylsulfonamido)-2-methyl-4-oxobutan-2-yl)-3-methyl-5-(phosphonooxy)phenyl)phosphonic acid] | 7300 µg/mL (≈ 5540 µM) |  | 1/100 μM | 1/100 μM |
| 60 μM | 1 μM | 0.4 µg/mL (≈ 0.385 µM) | 0.5 µg/mL (≈ 0.481 µM) | C[C@H](N)C(=O)N(c1nn(CC(F)(F)F)c2c(-c3ccc(C#CC(C)(C)S(C)(=O)=O)nc3[C@H](Cc3cc(F)cc(F)c3)NC(=O)Cn3nc(C(F)(F)F)c4c3C(F)(F)[C@@H]3C[C@H]43)ccc(Cl)c12)S(C)(=O)=O [Compound 18, (S)-2-amino-N-(4-chloro-7-(2-((S)-1-(2-((3bS,4aR)-5,5-difluoro-3-(trifluoromethyl)-3b,4,4a,5-tetrahydro-1H-cyclopropa[3,4]cyclopenta[1,2-c]pyrazol-1-yl)acetamido)-2-(3,5-difluorophenyl)ethyl)-6-(3-methyl-3-(methylsulfonyl)but-1-yn-1-yl)pyridin-3-yl)-1-(2,2,2-trifluoroethyl)-1H-indazol-3-yl)-N-(methylsulfonyl)propenamide] |  |  |  |  |
|  |  |  |  | CN(C(=O)N(c1nn(CC(F)(F)F)c2c(-c3ccc(C#CC(C)(C)S(C)(=O)=O)nc3[C@H](Cc3cc(F)cc(F)c3)NC(=O)Cn3nc(C(F)(F)F)c4c3C(F)(F)[C@@H]3C[C@H]43)ccc(Cl)c12)S(C)(=O)=O)c1ccccc1OP(=O)(O)O [Compound 54, 2-(3-(4-chloro-7-(2-((S)-1-(2-((3bS,4aR)-5,5-difluoro-3-(trifluoromethyl)-3b,4,4a,5-tetrahydro-1H-cyclopropa[3,4]cyclopenta[1,2-c]pyrazol-1-yl)acetamido)-2-(3,5-difluorophenyl)ethyl)-6-(3-methyl-3-(methylsulfonyl)but-1-yn-1-yl)pyridin-3-yl)-1-(2,2,2-trifluoroethyl)-1H-indazol-3-yl)-1-methyl-3-(methylsulfonyl)ureido)phenyl dihydrogen phosphate] | 1090 µg/mL | 561 µg/mL | 1/63 μM | 1/63 μM |
| 0.11 μM | 0.32 μM | 4.2 µg/mL (≈ 4.34 µM) | 4 µg/mL (≈ 4.13 µM) | CC(C)(C#Cc1ccc(-c2ccc(Cl)c3c(NS(C)(=O)=O)nn(CC(F)(F)F)c23)c([C@H](Cc2cc(F)cc(F)c2)NC(=O)Cn2nc(C(F)(F)F)c3c2C(F)(F)[C@@H]2C[C@H]32)n1)S(C)(=O)=O [Intermediate 5, N—((S)-1-(3-(4-chloro-3-(methylsulfonamido)-1-(2,2,2-trifluoroethyl)-1H-indazol-7-yl)-6-(3-methyl-3-(methylsulfonyl)but-1-yn-1-yl)pyridin-2-yl)-2-(3,5-difluorophenyl)ethyl)-2-((3bS,4aR)-5,5-difluoro-3-(trifluoromethyl)-3b,4,4a,5-tetrahydro-1H-cyclopropa[3,4]cyclopenta[1,2-c]pyrazol-1-yl)acetamide, reference compound] |  |  |  |  |
|  |  |  |  | Cc1cc(CP(=O)(O)O)cc(OP(=O)(O)O)c1C(C)(C)CC(=O)N(c1nn(CC(F)(F)F)c2c(-c3ccc(C#CC(C)(C)S(C)(=O)=O)nc3[C@H](Cc3cc(F)cc(F)c3)NC(=O)Cn3nc(C(F)(F)F)c4c3C(F)(F)[C@@H]3C[C@H]43)ccc(Cl)c12)S(C)(=O)=O [Compound 56, (4-(4-(N-(4-chloro-7-(2-((S)-1-(2-((3bS,4aR)-5,5-difluoro-3-(trifluoromethyl)-3b,4,4a,5-tetrahydro-1H-cyclopropa[3,4]cyclopenta[1,2-c]pyrazolyl)acetamido)-2-(3,5-difluorophenyl)ethyl)-6-(3-methyl-3-(methylsulfonyl)but-1-ynyl)pyridin-3-yl)-1-(2,2,2-trifluoroethyl)-1H-indazol-3-yl)methylsulfonamido)-2-methyloxobutan-2-yl)-3-methyl-5-(phosphonooxy)benzyl)phosphonic acid] | > 10000 µg/mL |  | 1/100 μM | 1/100 μM |
| 100 μM | 9 μM | 1 µg/mL (≈ 0.868 µM) | 21 µg/mL (≈ 18.2 µM) | CN(C)CCCC[C@@H](C(=O)N(c1nn(CC(F)(F)F)c2c(-c3ccc(C#CC(C)(C)S(C)(=O)=O)nc3[C@H](Cc3cc(F)cc(F)c3)NC(=O)Cn3nc(C(F)(F)F)c4c3C(F)(F)[C@@H]3C[C@H]43)ccc(Cl)c12)S(C)(=O)=O)N(C)C [Compound 6, (S)—N-(4-chloro-7-(2-((S)-1-(2-((3bS,4aR)-5,5-difluoro-3-(trifluoromethyl)-3b,4,4a,5-tetrahydro-1H-cyclopropa[3,4]cyclopenta[1,2-c]pyrazol-1-yl)acetamido)-2-(3,5-difluorophenyl)ethyl)-6-(3-methyl-3-(methylsulfonyl)but-1-yn-1-yl)pyridin-3-yl)-1-(2,2,2-trifluoroethyl)-1H-indazol-3-yl)-2,6-bis(dimethylamino)-N-(methylsulfonyl)hexanamide] |  |  |  |  |

| Structure (SMILES) | pH 2 solubility [2] | pH 7 solubility [3] | solubility [1, 4] | solubility [1, 5] | solubility ([1]; fassif) | solubility ([1]; fessif) | pH 2 solubility (pH 2) | pH 7 solubility (pH 7.4) |
| --- | --- | --- | --- | --- | --- | --- | --- | --- |
| CC(C)(C#Cc1ccc(-c2ccc(Cl)c3c(N(C(=O)CNC(=O)OCOP(=O)(O)O)S(C)(=O)=O)nn(CC(F)(F)F)c23)c([C@H](Cc2cc(F)cc(F)c2)NC(=O)Cn2nc(C(F)(F)F)c3c2C(F)(F)[C@@H]2C[C@H]32)n1)S(C)(=O)=O [Compound 35, (phosphonooxy)methyl (2-(N-(4-chloro-7-(2-((S)-1-(2-((3bS,4aR)-5,5-difluoro-3-(trifluoromethyl)-3b,4,4a,5-tetrahydro-111-cyclopropa[3,4]cyclopenta[1,2-c]pyrazol-1-yl)acetamido)-2-(3,5-difluorophenyl)ethyl)-6-(3-methyl-3-(methylsulfonyl)but-1-yn-1-yl)pyridin-3-yl)-1-(2,2,2-trifluoroethyl)-1H-indazol-3-yl)methylsulfonamido)-2-oxoethyl)carbamate] | 2 μM | 48 μM |  |  | 883 µg/mL (≈ 749 µM) |  |  |  |
